Measured values taken from US20220340566A1, “BENZYL AMINE-CONTAINING 5,6-HETEROAROMATIC COMPOUNDS USEFUL AGAINST MYCOBACTERIAL INFECTION” (priority 2019, published 2022).

How the values were obtained:
[1] = test system: Mycobacterium avium ATCC700898; test: Determination of IC85 against M. avium (resazurin fluorescence); assay type: cell-based; settings: Mycobacterium avium, ATCC700898, M. avium ATCC700898, CAMHB medium, 37° C., 3 days incubation then resazurin, fluorescence one day later; read-out: IC85
[2] = Metabolic stability test in pooled human liver microsomes; assay type: in vitro ADME; settings: human liver microsomes 0.5 mg protein/mL, 1 mmol/L NADPH, 37° C., 30 minutes
Experimental: Using a commercially available pooled human liver microsomes, a compound of the present invention was reacted for a constant time, a remaining rate was calculated by comparing a reacted sample and an unreacted sample, thereby, a degree of metabolism in liver was assessed.
A reaction was performed (oxidative reaction) at 37° C. for 0 minute or 30 minutes in the presence of 1 mmol/L NADPH in 0.2 mL of a buffer (50 mmol/L Tris-HCl pH 7.4, 150 mmol/L potassium chloride, 10 mmol/L magnesium chloride) containing 0.5 mg protein/mL of human liver microsomes. After the reaction, 50 μL of the reaction solution was added to 100 μL of a methanol/acetonitrile=1/1 (v/v), mixed and centrifuged at 3000 rpm for 15 minutes. The compound of the present invention in the supernatant was quantified by LC/MS/MS or solid phase extraction (SPE)/MS, and a remaining amount of the compound of the present invention after the reaction was calculated, letting a compound amount at 0 minute reaction time to be 100%.

Row | SMILES | IC85 [1] [nM] | MS_h_% (remaining amount of compound after reaction, 0 minute = 100%) [2] [%]
1 | CCc1nc2ccc(C#N)cn2c1C(=O)NCc1ccc(N2CCN(c3ccc(OC(F)(F)F)cc3)[C@@H](C)C2)c(F)c1 [Compound I-1-36] | 110 | 79
2 | Cc1nc2ccc(Cl)cn2c1C(=O)NCc1ccc(N2CCN(c3ccc(OC(F)(F)F)cc3)C[C@H]2C)c(F)c1 [Compound I-1-37] | 36 | 76
3 | CCc1nc2cc(F)ccn2c1C(=O)NCc1ccc(N2CCN(c3ccc(OC(F)(F)F)cc3)[C@@H](C)C2)c(F)c1 [Compound I-1-38] | 1.3 | 90
4 | CCc1nc2ccc(Cl)cn2c1C(=O)NCc1ccc(N2C[C@H](C)N(c3ccc(OC(F)(F)F)cc3)C[C@H]2C)c(F)c1 [Compound I-1-39] | 11 | 75
5 | Cc1nc2ccc(Cl)cn2c1C(=O)NCc1ccc(N2C[C@H](C)N(c3ccc(OC(F)(F)F)cc3)C[C@H]2C)c(F)c1 [Compound I-1-40] | 22 | 89
6 | Cc1ccn2c(C(=O)NCc3ccc(N4C[C@H](C)N(c5ccc(OC(F)(F)F)cc5)C[C@H]4C)c(F)c3)c(C)nc2c1 [Compound I-1-41] | 180 | 86
7 | CCc1nc2ccc(Cl)cn2c1C(=O)NCc1ccc(N2CCN(c3ccc(OC(F)(F)F)cc3)[C@@H](CC)C2)c(F)c1 [Compound I-1-42] | 9 | 59
8 | CCOc1ccc(N2CCN(c3ccc(CNC(=O)c4c(CC)nc5ccc(Cl)cn45)cc3F)C[C@@H]2C)cc1 [Compound I-1-44] | 11 | 69
9 | CCc1nc2ccc(Cl)cn2c1C(=O)NCc1ccc(N2CCN(c3ccc(OCC(F)(F)F)nc3)[C@@H](C)C2)c(F)c1 [Compound I-1-45] | 11 | 64
10 | Cc1nc2cc(F)ccn2c1C(=O)NCc1ccc(N2CCN(c3ccc(OC(F)(F)F)cc3)[C@@H](C)C2)c(F)c1 [Compound I-1-46] | 2.6 | 96
11 | Cc1cc2nc(C)c(C(=O)NCc3ccc(N4CCN(c5ccc(OC(F)(F)F)cc5)[C@@H](C)C4)c(F)c3)n2cc1F [Compound I-1-47] | 110 | 85
12 | CCc1nc2cc(C)c(Cl)cn2c1C(=O)NCc1ccc(N2CCN(c3ccc(OC(F)(F)F)cc3)[C@@H](C)C2)c(F)c1 [Compound I-1-48] | 35 | 69
13 | CCc1nc2cc(C)c(F)cn2c1C(=O)NCc1ccc(N2CCN(c3ccc(OC(F)(F)F)cc3)[C@@H](C)C2)c(F)c1 [Compound I-1-49] | 68 | 59
14 | Cc1nc2ccc(C#N)cn2c1C(=O)NCc1ccc(N2CCN(c3ccc(OC(F)(F)F)cc3)[C@@H](C)C2)c(F)c1.Cl [Compound I-1-50] | 500 | 94
15 | Cc1nc2cc(Cl)ccn2c1C(=O)NCc1ccc(N2CCN(c3ccc(OC(F)(F)F)cc3)[C@@H](C)C2)c(F)c1.Cl [Compound I-1-51] | 110 | 90
16 | Cc1nc2ccccn2c1C(=O)NCc1ccc(N2CCN(c3ccc(OC(F)(F)F)cc3)[C@@H](C)C2)c(F)c1.Cl [Compound I-1-52] | 5.4 | 84
17 | CCOc1ccc(N2CCN(c3ccc(CNC(=O)c4c(CC)nc5ccc(Cl)cn45)cc3F)C[C@@H]2C)cc1F.Cl [Compound I-1-53] | 37 | 65
18 | CCc1nc2ccc(Cl)cn2c1C(=O)NCc1ccc(N2CCN(c3ccc(OCC4CC4)cc3)[C@@H](C)C2)c(F)c1.Cl [Compound I-1-54] | 34 | 79
19 | CCOc1ccc(N2CCN(c3ccc(CNC(=O)c4c(CC)nc5ccc(Cl)cn45)cc3F)C[C@@H]2C)cc1OC.Cl [Compound I-1-55] | 690 | 84
20 | CCc1nc2ccc(Cl)cn2c1C(=O)NCc1ccc(N2CCN(c3ccc(OCC(C)(C)C)cc3)[C@@H](C)C2)c(F)c1.Cl [Compound I-1-56] | 22 | 60
21 | Cc1ccc2nc(Cl)c(C(=O)NCc3ccc(N4CCN(c5ccc(OC(F)(F)F)cc5)[C@@H](C)C4)c(F)c3)n2c1.Cl [Compound I-1-57] | 3.6 | 84
22 | Cc1ccn2c(C(=O)NCc3ccc(N4CCC(c5ccc(OC(F)(F)F)cc5)[C@@H](C)C4)c(F)c3)c(Cl)nc2c1.Cl (some centres unmarked) [Compound I-1-58] | 77 | 89

Row | SMILES | IC85 [1] [nM] | MS_h_% (remaining amount of compound after reaction, 0 minute = 100%) [2] [%]
23 | C[C@H]1CN(c2ccc(CNC(=O)c3c(Cl)nc4ccccn34)cc2F)CCN1c1ccc(OC(F)(F)F)cc1.Cl [Compound I-1-59] | 11 | 87
24 | Cc1nc2cc(Cl)ccn2c1C(=O)NCc1ccc(N2CC=C(c3ccc(OC(F)(F)F)cc3)CC2)c(F)c1.Cl [Compound I-1-60] | 11 | 72
25 | Cc1ccn2c(C(=O)NCc3ccc(N4CC=C(c5ccc(OC(F)(F)F)cc5)CC4)c(F)c3)c(C)nc2c1.Cl [Compound I-1-61] | 200 | 95
26 | CCc1nc2ccc(Cl)cn2c1C(=O)NCc1ccc(N2CCC(c3ccc(OC(F)(F)F)cc3)CC2)c(F)c1.Cl [Compound I-1-62] | 7.2 | 82
27 | Cc1nc2ccc(Cl)cn2c1C(=O)NCc1ccc(N2CCC(c3ccc(OC(F)(F)F)cc3)CC2)c(F)c1.Cl [Compound I-1-63] | 12 | 95
28 | Cc1nc2ccc(F)cn2c1C(=O)NCc1ccc(N2CCC(c3ccc(OC(F)(F)F)cc3)CC2)c(F)c1.Cl [Compound I-1-64] | 79 | 94
29 | Cc1ccn2c(C(=O)NCc3ccc(N4CCC(c5ccc(OC(F)(F)F)cc5)CC4)c(F)c3)c(C)nc2c1.Cl [Compound I-1-65] | 120 | 96
30 | CCc1nc2ccc(Cl)cn2c1C(=O)NCc1cc(F)c(N2CCC(c3ccc(OC(F)(F)F)cc3)CC2)c(F)c1.Cl [Compound I-1-66] | 11 | 83
31 | Cc1ccn2c(C(=O)NCc3cc(F)c(N4CCC(c5ccc(OC(F)(F)F)cc5)CC4)c(F)c3)c(C)nc2c1.Cl [Compound I-1-67] | 68 | 93
32 | CCc1nc2cc(F)ccn2c1C(=O)NCc1ccc(N2CCC(c3ccc(OC(F)(F)F)cc3)CC2)c(F)c1.Cl [Compound I-1-68] | 13 | 91
33 | Cc1nc2cc(Cl)ccn2c1C(=O)NCc1ccc(N2CCC(c3ccc(OC(F)(F)F)cc3)CC2)c(F)c1.Cl [Compound I-1-69] | 510 | 89
34 | Cc1ccn2nc(C)c(C(=O)NCc3ccc(N4CCN(c5ccc(OC(F)(F)F)cc5)[C@@H](C)C4)c(F)c3)c2c1.Cl [Compound I-1-70] | 25 | 84
35 | Cc1ccn2nc(C)c(C(=O)NCc3ccc(N4CCN(c5ccc(OC(F)(F)F)cc5)[C@H](C)C4)c(F)c3)c2c1.Cl [Compound I-1-71] | 100 | 78
36 | Cc1ccn2nc(C)c(C(=O)NCc3ccc(C4CCN(c5ccc(OC(F)(F)F)cc5)CC4)c(F)c3)c2c1.Cl [Compound I-1-72] | 66 | 87
37 | CCOc1ccc(N2CCC(c3ccc(CNC(=O)c4c(CC)nc5ccc(Cl)cn45)cc3F)CC2)cc1.Cl [Compound I-1-73] | 19 | 90
38 | CCc1nc2ccc(Cl)cn2c1C(=O)NCc1ccc(C2CCN(c3ccc(OC4CC4)cc3)CC2)c(F)c1.Cl [Compound I-1-74] | 39 | 64
39 | CCc1nc2ccc(Cl)cn2c1C(=O)NCc1ccc(C2CCN(c3ccc(OCC4CC4)cc3)CC2)c(F)c1.Cl [Compound I-1-75] | 16 | 71
40 | CCc1nc2ccc(Cl)cn2c1C(=O)NCc1ccc(C2CCN(c3ccc(OCC4CC4)nc3)CC2)c(F)c1.Cl [Compound I-1-76] | 46 | 80
41 | CCc1nc2ccc(Cl)cn2c1C(=O)NCc1ccc(C2CCN(c3ccc(OCC4CC4)cn3)CC2)c(F)c1.Cl [Compound I-1-77] | 22 | 59
42 | CCCCOc1ccc(N2CCC(c3ccc(CNC(=O)c4c(CC)nc5ccc(Cl)cn45)cc3F)CC2)cc1.Cl [Compound I-1-78] | 37 | 69
43 | CCc1nc2ccc(Cl)cn2c1C(=O)NCc1ccc(C2CCN(c3ccc(OCC(C)C)cn3)CC2)c(F)c1.Cl [Compound I-1-79] | 36 | 65
